US11826368B2 (DAEGU GYEONGBUK INSTITUTE OF SCIENCE AND TECHNOLOGY, priority 2018, dated 2023)

Tested on: BV2 microglial cells
Experiment: MTT assay for cytotoxicity toward BV2 microglial cells
Type: cell-based
Conditions: 24 hours
Experimental: Cell viability was assessed using the 3-(4,5-dimethylthiazol-2-yl)-2,5-diphenyltetrazolium bromide (MTT) assay. […] The cells were then treated with 0.5 mg/ml MTT and incubated for 3 hours at 37° C. in a 5% CO2 incubator. Absorbance was read at 580 nm.

## C=CC(=O)N1CCC[C@@H](n2nc(-c3ccc(Oc4ccccc4)cc3)c3c(N)ncnc32)C1 [ibrutinib]
50 μM
  cytotoxicity in BV2 microglial cells: cell death was detected
Concentrations up to 25 μM
  cytotoxicity in BV2 microglial cells: did not induce cytotoxicity
